Measurements: article PMC12013366, “In vitro evaluation of the immunogenic potential of gramicidin S and its photocontrolled analogues” (RSC Medicinal Chemistry, 2025)
Where two headings read alike, the source gives them in different places. Non-standard residues stand in square brackets, D forms with d. Residues, ends and D or L forms follow the SMILES beside them. Orn = NCCC[C@H](N)C(=O)O

Tests used:
[1] = tested on: calreticulin (CALR) on HepG2 cells; test: CALR exposure on the cell surface, fluorescence microscopy; assay type: cell-based, human; conditions: HepG2 monolayer; 32 μM; 24 h; Alexa Fluor 647 anti-CALR antibody, normalized to non-treated cells; n=2
Experimental: (§1) We performed fluorescence microscopy using an Alexa Fluor 647 anti-CALR antibody for quantifying the CALR exposure on the surface of cells. Confluent monolayer 4T1, HeLa, HepG2 and MDA-MB-231 cell cultures were incubated with GS and GS-derived peptides for 24 h followed by fixation, staining with the antibody and microscopic observation. Using the images, we calculated the total levels of the fluorescence signal per cell in each sample. […] To examine the time dependence of the CALR exposure, cytofluorimetric experiments were conducted on the MDA-MB-231 cell line (Fig. 9) using an Alexa Fluor 647 anti-CALR antibody. In this experiment, 30 min, 3 h, 6 h and 24 h were the time points for monitoring the fraction of cells expressing CALR on their surface.
(§2) The cells were seeded (10 000 cells per well for 4T1; 20 000 cells per well for HeLa and MDA-MB-231; 30 000 cells per well for HepG2) in 200 μL of appropriate medium in a 96-well black-wall transparent-bottom plate (6055302, Revvity). After 24 h incubation, the medium was aspired and 100 μL of fresh medium was added. The compounds (64, 32, 16 and 8 μM for closed photoforms; 32, 16, 8 and 4 μM for open photoforms and GS) along with the negative (1% DMSO) control were prepared in DMEM and dispensed in 100 μL per well for 24 h. Then 50 μL of 20% paraformaldehyde (28908, Thermo Fisher) was added for 15 min for fixation. […]

[2] = tested on: calreticulin (CALR) on MDA-MB-231 cells; test: as above; assay type: cell-based, human; conditions: MDA-MB-231 monolayer; 8 and 16 μM; 24 h; Alexa Fluor 647 anti-CALR antibody, normalized to non-treated cells; n=2
Experimental: as §1, §2

[3] = Cytotoxicity, two-dimensional (monolayer) assay; assay type: cell-based; conditions: human, HEK-293 cells, HEK-293 monolayer, necrotic cells by PI/Hoechst 33342 imaging, ± SEM, n=4, read-out: IC50, cytotoxic activity, two-dimensional assay; for IC50 at 10 min: 10 mins incubation; for IC50 at 1 h: 1 h incubation; for IC50 at 24 h: 24 hrs incubation; for IC50 at 72 h: 72 hrs incubation
Experimental: Screening of the cytotoxic activity of compounds in a two-dimensional (2D) format was designed in accordance with the previously obtained data[32] for the HeLa cell line. The cytotoxic action of peptides was quantified in the 96-well plate format at four time points after adding compounds – at 10 min, 1 h, 24 h and 72 h. […] The selected IC50 values for different incubation times are exemplified in Fig. 2.
Essential experimental details have been previously published by us.[79]
The cells were maintained in a culture till 70–80% confluence was reached and then seeded in a 96-well black-wall transparent-bottom plate (6055302, Revvity) with 200 μL of appropriate medium per well. The seeding density has been previously determined in the optimization experiments for each cell line: 3500 cells per well for 4T1; 20 000 cells per well for HEK-293; 20 000 cells per well for HeLa; 25 000 cells per well for HepG2; 8000 cells per well for LLC; 15 000 cells per well for MDA-MB-231. After 24 h incubation at 37 °C, the medium was removed and 100 μL of fresh medium was added. Two-fold serial dilution of compounds (256–0.5 μM, 11 points for closed forms of photoswitchable peptides; 128–0.25 μM, 11 points for open forms; 64–0.5, 8 points for GS) in the medium was prepared and dispensed in 100 μL per well. The plates were incubated with compounds for 10 min, 1 h, 24 h and 72 h. The staining solution consisting of 25 μM of Hoechst 33342 (62249, Thermo Fisher), 5 μM of propidium iodide (J66764-MC, Thermo Fisher) or ethidium homodimer-1 (E1169, Thermo Fisher), with 10% FBS in DPBS (21600044, Thermo Fisher) was prepared and added to wells in a volume of 50 μL for 20 min. Fluorescence images were acquired using an INCell Analyzer 6500 HS automatic imaging system with 20× objective lens (NA = 0.45) and 16 fields of view (FOV) per well. The numerical data were obtained using INCarta 1.13 and then analysed using GraphPad Prism 10.

[4] = 2D monolayer, Table S1 series (with LMB033)
[5] = monolayer (2D), Table S2 series (with LMB002)

Question: Which “enhancement in CALR exposure” value [1] does the source give for `CC(C)C[C@@H]1NC(=O)[C@H](CCCN)NC(=O)[C@H](C(C)C)NC(=O)[C@@H]2CCCN2C(=O)[C@@H](Cc2ccccc2)NC(=O)[C@H](CC(C)C)NC(=O)[C@H](CCCN)NC(=O)[C@H](C(C)C)NC(=O)[C@@H]2CCCN2C(=O)[C@@H](Cc2ccccc2)NC1=O` [Gramicidin S, gramicidin S] (cyclo(V[Orn]L[dF]PV[Orn]L[dF]P)) here?
Answer: Its value is 4–7 fold.

Question: And the “increase of CALR exposure” value [2]?
Answer: Its value is 3 fold.

Question: And the IC50 at 10 min [3, 4]?
Answer: Its IC50 at 10 min is 12.9 ± 0.4 µM.

Question: And the IC50 at 1 h [3, 4]?
Answer: The IC50 at 1 h was 11.6 ± 0.1 µM.

Question: What about the IC50 at 24 h [3, 4] of the same compound?
Answer: The IC50 at 24 h was 8.3 ± 0.2 µM.

Question: And the IC50 at 72 h [3, 4]?
Answer: The IC50 at 72 h was 8.4 ± 0.7 µM.

Question: And the IC50 at 10 min [3, 5]?
Answer: Its IC50 at 10 min is 15.4 ± 0.1 µM.

Question: What about the IC50 at 1 h [3, 5] of the same compound?
Answer: The IC50 at 1 h was 12.7 ± 0.2 µM.

Question: What about the IC50 at 24 h [3, 5] of the same compound?
Answer: Its IC50 at 24 h is 10.4 ± 0.1 µM.

Question: What about the IC50 at 72 h [3, 5] of the same compound?
Answer: The IC50 at 72 h was 11.1 ± 0.1 µM.
